Results on 26 molecules are retold here after PMC2929374 (Chemmedchem, 2009).

Some results are limits rather than exact numbers.

T1 sequence (P39051 whole entry): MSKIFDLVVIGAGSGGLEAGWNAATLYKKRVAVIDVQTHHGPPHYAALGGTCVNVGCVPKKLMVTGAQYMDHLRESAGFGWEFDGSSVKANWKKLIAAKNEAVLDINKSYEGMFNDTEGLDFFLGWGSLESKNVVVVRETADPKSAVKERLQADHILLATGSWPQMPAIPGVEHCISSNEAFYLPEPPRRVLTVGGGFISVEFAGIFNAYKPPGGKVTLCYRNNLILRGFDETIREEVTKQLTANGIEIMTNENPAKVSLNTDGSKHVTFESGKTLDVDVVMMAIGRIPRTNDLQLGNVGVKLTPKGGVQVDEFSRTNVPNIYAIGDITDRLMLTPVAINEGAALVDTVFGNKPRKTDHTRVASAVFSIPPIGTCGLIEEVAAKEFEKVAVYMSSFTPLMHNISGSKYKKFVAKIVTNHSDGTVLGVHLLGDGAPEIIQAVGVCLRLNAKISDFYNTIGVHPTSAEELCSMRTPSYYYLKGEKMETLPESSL

The first test concerns the target T1, T. brucei TryR (trypanothione reductase; TyrR) (Trypanosoma brucei, UniProt P39051). In words: DTNB-coupled TryR assay, absorbance, 384-well. The format is biochemical.
Details: not given
`CC(C)(c1cc2ccccc2s1)N1CCCCC1` [compound 19]: half-maximal inhibition (IC50) required 15 µM.
Same read-out and setting: to `O=C(c1ccccc1)N1CCC(c2cc3ccccc3s2)(N2CCCCC2)CC1` [compound 30, (4′-(Benzo[b]thiophen-2-yl)-1,4′-bipiperidinyl-1′-yl)(phenyl)methanone] belongs 13 µM; to `c1ccc2sc(C3(N4CCCCC4)CCCC3)cc2c1` [compound 17], 11 µM.
For the molecule `CC(C)(C)OC(=O)N1CCC(c2cc3ccccc3s2)(N2CCCCC2)CC1` [compound 27, tert-Butyl 4′-(benzo[b]thiophen-2-yl)-1,4′-bipiperidine-1′-carboxylate], the IC50 (usually the concentration that inhibits the measured activity by half) is greater than 100 µM.
On the same count and under the same terms, with `O=C(c1cc2ccccc2s1)C1(N2CCCCC2)CCCCC1` [compound 24, Benzo[b]thiophen-2-yl(1-(piperidin-1-yl)cyclohexyl)methanone] the figure was greater than 100 µM.
`O=C(Cc1ccccc1)N1CCC(c2cc3ccccc3s2)(N2CCCCC2)CC1` [compound 31, 1-(4′-(Benzo[b]thiophen-2-yl)-1,4′-bipiperidinyl-1′-yl)-2-phenylethanone] returned an IC50 of 12 µM.
`CN1CCC(c2cc3ccccc3s2)(N2CCCCC2)CC1` [compound 18] returned an IC50 of 0.93 µM.
With `CN1CCN(C2(c3cc4ccccc4s3)CCCCC2)CC1` [compound 16], inhibition was half-maximal at 10 µM (IC50).
`c1ccc(CN2CCC(c3cc4ccccc4s3)(N3CCCCC3)CC2)cc1` [compound 34, 4′-(Benzo[b]thiophen-2-yl)-1′-benzyl-1,4′-bipiperidine]: the IC50 was determined as 19 µM.
On the same count and under the same terms, to `CC(=O)N1CCC(c2cc3ccccc3s2)(N2CCCCC2)CC1` [compound 29] belongs 6.6 µM; to `c1ccc2sc(C3(N4CCCCC4)CCN(CCN4CCOCC4)CC3)cc2c1` [compound 33, 4-(2-(4′-(Benzo[b]thiophen-2-yl)-1,4′-bipiperidin-1′-yl)ethyl)morpholine], 4.4 µM.
The same measure, in the same setting: with `c1ccc2sc(C3(N4CCCCC4)CCNCC3)cc2c1` [compound 28, 4′-(Benzo[b]thiophen-2-yl)-[1,4′]bipiperidine] the figure was 5.1 µM; with `CN(C)CC(=O)N1CCC(c2cc3ccccc3s2)(N2CCCCC2)CC1` [compound 32, 1-(4′-(Benzo[b]thiophen-2-yl)-1,4′-bipiperidinyl-1′-yl)-2-(dimethylamino)ethanone], 2.6 µM; with `c1ccc2cc(C3(N4CCCCC4)CCCCC3)ccc2c1` [compound 7], 28 µM.
The same measure, in the same setting: with `c1ccc(-c2ccc(C3(N4CCCCC4)CCCCC3)cc2)cc1` [compound 4] the figure was greater than 100 µM; with `OC(c1ccccc1)(c1ccccc1)C1(N2CCCCC2)CCCCC1` [compound 25, Diphenyl(1-(piperidin-1-yl)cyclohexyl)methanol], greater than 100 µM; with `Brc1ccc2sc(C3(N4CCCCC4)CCCCC3)cc2c1` [compound 12, 1-(1-(5-Bromo-benzo[b]thiophen-2-yl)cyclohexyl)piperidine], greater than 100 µM.
As to `c1ccc2oc(C3(N4CCCCC4)CCCCC3)cc2c1` [compound 5], it took 4.4 µM to reach half-maximal inhibition (IC50).
On the same count and under the same terms, to `c1ccc2sc(C3(N4CCOCC4)CCCCC3)cc2c1` [compound 15] belongs 11 µM; to `c1ccc2c(C3(N4CCCCC4)CCCCC3)cccc2c1` [compound 6], greater than 100 µM; to `CN(C)CCN1CCC(c2cc3ccccc3s2)(N2CCCCC2)CC1` [compound 35, 2-(4′-(Benzo[b]thiophen-2-yl)-1,4′-bipiperidinyl-1′-yl)-N,N-dimethylethanamine], greater than 100 µM.
Molecule `c1ccc2sc(C3(N4CCCCC4)CCCCC3)nc2c1` [compound 9] yielded a concentration for half-maximal inhibition (IC50) greater than 100 µM.

Still in this test, the particulars now being: read-out: TryR IC50; pH 7.4, 40 mM HEPES, 1 mM EDTA, 6 μM trypanothione, 50 μM DTNB, 150 μM NADPH, room temperature.
On to `c1csc(C2(N3CCCCC3)CCCCC2)c1` [compound 3], for which the 50% inhibitory concentration (IC50) was greater than 100 µM.
Same read-out and setting: with `c1ccc2sc(C3(N4CCCC4)CCCCC3)cc2c1` [compound 13] the figure was 0.91 µM; with `c1ccc2sc(C3(N4CCCCC4)CCCCC3)cc2c1` [compound 1, 1-(1-(Benzo[b]thiophen-2-yl)cyclohexyl)piperidine], 3.3 µM; with `CCN(CC)C1(c2cc3ccccc3s2)CCCCC1` [compound 14], 5 µM.

Another test has as its target T1, T. brucei TryR (trypanothione reductase; TyrR). The test can be described thus: DTNB-coupled kinetics, global fit. The format is biochemical.
Details: not given
With `c1ccc2oc(C3(N4CCCCC4)CCCCC3)cc2c1` [compound 5], the Ki – broadly, the equilibrium dissociation constant of an inhibitor or competing ligand from its target – is 1.46 µM.
